Measured values: the supplement of paper PMC4862054

Assays:
Conditions in all cases: incubation time: 72 h
MDA-MB-468 [1] = assay: normalised response (% of control), CellTiter-Glo; higher = more viable cells (100 = DMSO, 0 = benzethonium chloride kill control)
Description: (§1)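 DSRT, 72 h incubation, CellTox Green / CellTiter-Glo readout. Signal is normalised to DMSO and benzethonium chloride controls. Value is the normalised response at the highest dose.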

Hs578T [2] = assay: as above
Description: as §1

HCC1599 [3] = assay: as above
Description: as §1

CAL-85-1 [4] = assay: as above
Description: as §1

HDQ-P1 [5] = assay: as above
Description: as §1

CAL-51 [6] = assay: as above
Description: as §1

SK-BR-3 = assay: as above
Description: as §1

CAL-120 [7] = assay: as above
Description: as §1

HCC1143 [8] = assay: as above
Description: as §1

DU-4475 [9] = assay: as above
Description: as §1

HCC1937 [10] = assay: as above
Description: as §1

MCF-10A [11] = assay: as above
Description: as §1

MFM-223 [12] = assay: as above
Description: as §1

BT-549 [13] = assay: as above
Description: as §1

CAL-148 [14] = assay: as above
Description: as §1

MDA-MB-453 [15] = assay: as above
Description: as §1

MDA-MB-231 [16] = assay: as above
Description: as §1

BT-474 [17] = assay: as above
Description: as §1

MDA-MB-436 [18] = assay: as above
Description: as §1

MDA-MB-468 [19] = assay: normalised response (% of control), CellTox Green; higher = less cell death (100 = DMSO, 0 = benzethonium chloride kill control)
Summary of the method: (§2)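 For each plate, 0.1 % DMSO was set to 100 and a positive kill control to 0. Breast cancer cell lines (20 µl suspension) were seeded into 384-well plates already holding compound at 5 concentrations in 10-fold steps over a 10,000-fold range chosen per compound, and incubated for 72 h. CellTox Green fluorescence at 485/520 nm was read before CellTiter-Glo luminescence, which followed 10 min at room temperature. Each value is the normalised signal at one concentration.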

Hs578T [20] = assay: as above
Summary of the method: as §2

HCC1599 [21] = assay: as above
Summary of the method: as §2

CAL-85-1 [22] = assay: as above
Summary of the method: as §2

HDQ-P1 [23] = assay: as above
Summary of the method: as §2

CAL-51 [24] = assay: as above
Summary of the method: as §2

CAL-120 [25] = assay: as above
Summary of the method: as §2

HCC1143 [26] = assay: as above
Summary of the method: as §2

DU-4475 [27] = assay: as above
Summary of the method: as §2

HCC1937 [28] = assay: as above
Summary of the method: as §2

MCF-10A [29] = assay: as above
Summary of the method: as §2

MFM-223 [30] = assay: as above
Summary of the method: as §2

BT-549 [31] = assay: as above
Summary of the method: as §2

CAL-148 [32] = assay: as above
Summary of the method: as §2

MDA-MB-453 [33] = assay: as above
Summary of the method: as §2

MDA-MB-231 [34] = assay: as above
Summary of the method: as §2

BT-474 [35] = assay: as above
Summary of the method: as §2

MDA-MB-436 [36] = assay: as above
Summary of the method: as §2

Row | SMILES | normalised response (MDA-MB-468 [1]) [%] | normalised response (Hs578T [2]) [%] | normalised response (HCC1599 [3]) [%] | normalised response (CAL-85-1 [4]) [%] | normalised response (HDQ-P1 [5]) [%] | normalised response (CAL-51 [6]) [%] | normalised response (SK-BR-3) [%] | normalised response (CAL-120 [7]) [%] | normalised response (HCC1143 [8]) [%] | normalised response (DU-4475 [9]) [%] | normalised response (HCC1937 [10]) [%] | normalised response (MCF-10A [11]) [%] | normalised response (MFM-223 [12]) [%] | normalised response (BT-549 [13]) [%] | normalised response (CAL-148 [14]) [%] | normalised response (MDA-MB-453 [15]) [%] | normalised response (MDA-MB-231 [16]) [%] | normalised response (BT-474 [17]) [%] | normalised response (MDA-MB-436 [18]) [%] | normalised response (MDA-MB-468 [19]) [%] | normalised response (Hs578T [20]) [%] | normalised response (HCC1599 [21]) [%] | normalised response (CAL-85-1 [22]) [%] | normalised response (HDQ-P1 [23]) [%] | normalised response (CAL-51 [24]) [%] | normalised response (CAL-120 [25]) [%] | normalised response (HCC1143 [26]) [%] | normalised response (DU-4475 [27]) [%] | normalised response (HCC1937 [28]) [%] | normalised response (MCF-10A [29]) [%] | normalised response (MFM-223 [30]) [%] | normalised response (BT-549 [31]) [%] | normalised response (CAL-148 [32]) [%] | normalised response (MDA-MB-453 [33]) [%] | normalised response (MDA-MB-231 [34]) [%] | normalised response (BT-474 [35]) [%] | normalised response (MDA-MB-436 [36]) [%]
1 | CO[C@H]1C[C@@H]2CC[C@@H](C)[C@@](O)(O2)C(=O)C(=O)N2CCCC[C@H]2C(=O)O[C@H]([C@H](C)C[C@@H]2CC[C@@H](OCCO)[C@H](OC)C2)CC(=O)[C@H](C)/C=C(\C)[C@@H](O)[C@@H](OC)C(=O)[C@H](C)C[C@H](C)/C=C/C=C/C=C/1C [Everolimus] (100 nM) | 57.5 | 65.1 | 104 | 63.1 | 72.9 | 64.3 | 49.5 | 63.5 | 61.5 | 63.7 | 66.1 | 80.9 | 61.6 | 61 | 53.4 | 51.5 | 87.9 | 77.6 | 75.5 | 158 | 79.6 | 95.8 | 122 | 109 | 98.1 | 99.3 | 66.4 | 95.4 | 88.6 | 92.9 | 53.1 | 100 | 92.5 | 104 | 111 | 100 | 99.7
2 | CCCCCCCCc1ccc(CCC(N)(CO)CO)cc1 [Fingolimod] (10000 nM) | -0.02 | 62.2 | 61.6 | -0.17 | 27.9 | 47.6 | -0.19 | 78.1 | 75.8 | 89.2 | 5.87 | -0.32 | 39.2 | 11.2 | 44.7 | 0.66 | 1.4 | 1.96 | 12.8 | -186 | 37.8 | 91.4 | -110 | 53.7 | 47.5 | 69.4 | 97 | 100 | 5.79 | -90 | 62.1 | 57 | 67.4 | 33.6 | -62.5 | 0.12 | 44.4
3 | COc1ccccc1S(=O)(=O)Nc1ccc2c(c1)CN(C)C(=O)N2 [PFI-1] (10000 nM) | 65.4 | 41.6 | 56.6 | 46.2 | 65.2 | 56.9 | 64.3 | 75.8 | 67.1 | 71.8 | 74.1 | 54.1 | 59.5 | 44.5 | 82 | 42.8 | 66.8 | 64.6 | 80 | 193 | 135 | 104 | 65.1 | 103 | 83.5 | 104 | 104 | 90.2 | 120 | 125 | 103 | 108 | 91.6 | 94.5 | 117 | 105 | 101
4 | C/C(=C\c1csc(C)n1)[C@@H]1C[C@@H]2O[C@]2(C)CCC[C@H](C)[C@H](O)[C@@H](C)C(=O)C(C)(C)[C@@H](O)CC(=O)O1 [Patupilone] (1000 nM) | 36 | 12.2 | 25.3 | 20.7 | 62.4 | 25.4 | 11.7 | 58.4 | 31.3 | 49.2 | 74 | 41.5 | 47.4 | 18.5 | 54.1 | 53.2 | 29.8 | 36.8 | 31.5 | 97.4 | -68.9 | 92.5 | -11.4 | 93.3 | 41.2 | 87.5 | 53.7 | 100 | 103 | 20.1 | 55.5 | 74.4 | 52.6 | 96.4 | -10.5 | 52.6 | 78.4
